Reference: patent US20120040389A1 (Institut National de la Sante et de la Recherche Medicale …, priority 2003, published 2012)

Tests used:
Bax protein = test: Bax activation: retention of GFP-Bax fluorescence after digitonin permeabilization, flow cytometry; type: cell-based, human; conditions: clone 10; coupled test FL1 (GFP) / FL3 (DNA); FIG. 11
Procedure: (§1) FIG. 11A-E represents the coupled measurement of Bax activation and the cell cycle. The clone 10 cells stably expressing the GFP-Bax fusion protein are treated with various drugs acting as pro-apoptotic agents and/or cytostatic agents. The measurement of Bax activation is carried out as described previously by evaluation of the retention of fluorescence after permeabilization with digitonin. In the permeabilization buffer, propidium iodide (0.4-0.8 mg/ml) was added and the cells were incubated for 30 minutes at 4° C. The distribution of the cells in the various phases of the cell cycle is read on the basis of their intensity of fluorescence in the red (PI).
The model implemented uses a clone designated “clone 10”.
The test is then based on the observation, under the fluorescence microscope or by flow cytometry, of the cells in which Bax is not activated and thus is distributed uniformly in the cytosol and of the cells in which Bax has been activated following an induction of apoptosis. In the latter case, the fluorescent signal is aggregated around the mitochondria and the Bax protein is thus considered as “bound”.
The cells are then resuspended in an intracellular saline solution in the presence of 50 μM of digitonin and then analyzed by flow cytometry and the fluorescence of the GFP is measured in channel FL1.

clone 10 cells = test: Cell cycle distribution by propidium iodide, coupled with the Bax activation test; type: cell-based, human; conditions: propidium iodide 0.4-0.8 mg/ml, 30 minutes at 4° C., FIG. 11
Procedure: as §1, with “(PI). […] Moreover, it makes it possible to evaluate if Bax activation takes place in a preferential phase of the cell cycle.” for “(PI).”
The measurement of the cell cycle can be carried out in a traditional way by adding to the permeabilized cell suspension a sufficient concentration of propidium iodide (0.4-0.8 mg/ml). The cells are incubated for 30 minutes to allow time for PI to become intercalated in the genomic DNA, and then analyzed using flow cytometry by simultaneously measuring “green” fluorescence (FL1=the recombinant biosensor signal based on GFP or another fluorescent protein emitting in the green range) and “red” fluorescence (FL3=the intensity of PI corresponding to the chromatin content of each cell, which enables the cell cycle to be read).

caspase 3 [1] = test: Caspase 3 activation in a xenografted clone 23 tumor in nude mice, confocal microscopy; type: in vivo; conditions: mouse with xenografted clone 23 tumor; 40 mg/kg/day for 4 days; FIG. 12c
Description: FIG. 12 represents the xenograft of lines expressing a fluorescent biosensor. a) Confocal microscopy image (10×) of a section of a solid tumor generated by a subcutaneous xenograft of clone 10 cells (stably expressing GFP-Bax) in nude mice. Marking of nuclei (Hoechst) and cells with activated Bax (GFP-Bax). On the right, the detail of a cell with GFP-Bax relocalized to the mitochondria (GFP-Bax) and corresponding nuclear marking (Hoechst). b) Confocal microscopy image (10×) of a section of a solid tumor generated by a subcutaneous xenograft of clone 23 cells (stably expressing the protein copGFP-DEVD-cb5TMD-RR) in nude mice. Marking of nuclei (Hoechst) and distribution of the biosensor (caspase 3 probe).
These lines (designated clone 10 and clone 23, respectively), injected subcutaneously in “nude” mice form solid fluorescent tumors after a few days.

caspase 3 [2] = test: Cleavage and redistribution of caspase 3 probes, confocal and fluorescence microscopy; type: cell-based, human
Procedure: The quantification of cleavage and of the diffusion of the fluorescent signal in the cytosol is carried out by measuring the increase in the respectively green and red fluorescent signal in a region of the nucleus.
The quantification of the cleavage and of the diffusion of the fluorescent signal respectively from the nucleus to the cytosol for the protein H2B-DEVD-GFP and from the cytosol to the nucleus for the protein HcRed-DEVT-cb5 is carried out by measuring the increase in the fluorescent signal, respectively green in a cytosolic region of the cell and red in a region of the nucleus. e) Evaluation by flow cytometry of the functionality of the probe by quantification of the percentage of retention of fluorescence after permeabilization in a population of HeLa cells transfected transiently with the protein H2B-DEVD-GFP and its non-cleavable control.
The cells are cultivated on glass slides and transfected with the vector described previously; they are then mounted in a saline medium in an incubation chamber and observed under the fluorescence microscope. Before or during the observation, they are treated with the pro-apoptotic agent.

caspase 2 = test: Distribution of nuclear-anchored caspase 2 probe in HeLa cells; type: cell-based, human; conditions: transiently transfected, 3 hours, untreated cells show nuclear distribution, FIG. 10e
Description: Fusion proteins GFP-cb5TMRR and GFP-SNAP(80-136) were constructed which carry, in the linker connecting the fluorescent protein and the anchoring segment, the caspase 8 consensus sensing site (IETD) which is principal “initiating” pro-apoptotic caspase. In the same manner, a fusion protein GFP-H2B was constructed which contains, in the sequence linker, the caspase 2 consensus sensing sequence (VDVAD), which is a protease with nuclear localization. The sensing components thus used have as sequences SEQ ID No. 6 and 14 (for caspase 8), and SEQ ID No. 12 (for caspase 2). These proteins are cleavable and the quantification of the proteolytic activity can be carried out via cytometry as shown for caspase 3 (FIG. 10).

Compound | Bax activation in relation to the phase of the cell cycle (Bax protein) | Effect on the cell cycle (distribution in phases G1, S, G2/M) (clone 10 cells) | other results
CC[C@@]1(O)C(=O)OCc2c1cc1n(c2=O)Cc2cc3ccccc3nc2-1 [camptothecin] | Bax activation preferentially in phase Gl | blockage in phase S | 
CN[C@H]1CCc2cc(OC)c(OC)c(OC)c2-c2ccc(OC)c(=O)cc21 [colcemid] |  | accumulation in phase G2 | 
COc1cccc2c1C(=O)c1c(O)c3c(c(O)c1C2=O)C[C@@](O)(C(C)=O)C[C@@H]3O[C@H]1C[C@H](N)[C@H](O)[C@H](C)O1 [daunorubicin] | Bax activation in phase S | accumulation in phase G2 | 
COc1cc([C@@H]2c3cc4c(cc3[C@@H](O[C@@H]3O[C@@H]5CO[C@@H](C)O[C@H]5[C@H](O)[C@H]3O)[C@H]3COC(=O)[C@H]23)OCO4)cc(OC)c1O [etoposide] |  |  | Caspase 3 activation in tumor cells (cytosolic distribution of fluorescence) (caspase 3 [1]): appearance of cells having activated caspase 3
CN[C@@H]1C[C@H]2O[C@@](C)([C@@H]1OC)n1c3ccccc3c3c4c(c5c6ccccc6n2c5c31)C(=O)NC4 [staurosporine] | induction of Bax activation in any phase of the cycle | no effect on the cycle | Cleavage of probes GFP-DEVD-ANT and HcRed-DEVD-Cb5RR (caspase 3 [2]; human HeLa cells, transiently co-transfected, confocal microscopy, FIG. 8e-f): Release of the fluorescent protein in the cytosol following its cleavage; Distribution of fluorescent protein H2B-DEVD-GFP (caspase 3 [2]; human HeLa cells, transiently transfected, untreated cells show nuclear distribution, FIG. 9c): cytosolic distribution; Cleavage of probe GFP-DEVD-SNAP(80-136) (caspase 3 [2]; human SH-SY5Y neuroblastoma cells, transiently transfected, confocal microscopy, FIG. 7c): Release of the fluorescent protein in the cytosol following its cleavage; Distribution of fluorescent protein GFP-IETD-H2B (caspase 2): cytosolic distribution
